Source: patent publication US20160339187A1, “DEVICES AND METHODS FOR CONTROLLED DRUG DELIVERY OF WET AEROSOLS” (THE RESEARCH FOUNDATION FOR THE STATE UNIVERSITY OF NEW YORK, priority 2014, published 2016)

Tests used:
[1] = Gamma camera deposition in patients inhaling aerosol during tidal breathing from AeroTech II nebulizers; format: in vivo, human; conditions: group of patients, AeroTech II type nebulizers
[2] = 15 normal subjects, Aeroneb nebulizer with Idehaler; cited from earlier work

| upper airway deposition as a percentage of total deposition [1] [%] | SMILES | oropharyngeal activity (average) [2] [%] |
| --- | --- | --- |
| ≤ 5 | N=C(N)c1ccc(OCCCCCOc2ccc(C(=N)N)cc2)cc1 [pentamidine] |  |
|  | NCC[C@H](O)C(=O)N[C@@H]1C[C@H](N)[C@@H](O[C@H]2O[C@H](CN)[C@@H](O)[C@H](O)[C@H]2O)[C@H](O)[C@H]1O[C@H]1O[C@H](CO)[C@@H](O)[C@H](N)[C@H]1O [amikacin] | 29.4±7.4 |
